# Experiments:
# Test in all cases: relative viability (nuclei count vs DMSO), 5 days (fraction); higher = more cells survive
# [1] = compound: CC1=CC(=NN1)NC2=CC(=NC(=N2)/C=C/C3=CC=CC=C3)N4CCN(CC4)C + O=C(CCCCCCC(=O)Nc1ccccc1)NO [Vorinostat] (partner 1 µM)
# Summary of the method: (§1)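 Relative viability equals treated-well nuclei counts divided by vehicle-well nuclei counts. Counts came from 4× images of lung cancer cell lines grown in 1536-well plates for 5 days after pin-tool dosing on the day after seeding. Dosing used one drug alone or a fixed anchor-drug dose plus five library-drug doses (not always all listed) in √10 steps, and values are medians of duplicate plates.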
# [2] = compound: CC1=CC(=NN1)NC2=CC(=NC(=N2)/C=C/C3=CC=CC=C3)N4CCN(CC4)C + CC(C)C[C@H](NC(=O)[C@H](Cc1ccccc1)NC(=O)c1cnccn1)B(O)O [Bortezomib] (partner 0.002 µM)
# Summary of the method: as §1
# Obatoclax + AZD7762 = compound: COC1=CC(c2cc3ccccc3[nH]2)=N/C1=C\c1[nH]c(C)cc1C [Obatoclax] + NC(=O)Nc1cc(-c2cccc(F)c2)sc1C(=O)N[C@H]1CCCNC1 [AZD7762] (partner 0.2 µM)
# Summary of the method: as §1
# Bortezomib + Dasatinib = compound: CC(C)C[C@H](NC(=O)[C@H](Cc1ccccc1)NC(=O)c1cnccn1)B(O)O [Bortezomib] + Cc1nc(Nc2ncc(C(=O)Nc3c(C)cccc3Cl)s2)cc(N2CCN(CCO)CC2)n1 [Dasatinib] (partner 0.075 µM)
# Summary of the method: as §1
Cell Line,relative viability ([1]; first compound 0.08 µM),relative viability ([1]; first compound 0.253 µM),relative viability ([1]; first compound 0.8 µM),relative viability ([1]; first compound 2.53 µM),relative viability ([1]; first compound 8 µM),relative viability ([2]; first compound 0.08 µM),relative viability ([2]; first compound 0.253 µM),relative viability ([2]; first compound 0.8 µM),relative viability ([2]; first compound 2.53 µM),relative viability ([2]; first compound 8 µM),relative viability (Obatoclax + AZD7762; first compound 0.01 µM),relative viability (Obatoclax + AZD7762; first compound 0.03162 µM),relative viability (Obatoclax + AZD7762; first compound 0.1 µM),relative viability (Obatoclax + AZD7762; first compound 0.3162 µM),relative viability (Obatoclax + AZD7762; first compound 1 µM),relative viability (Bortezomib + Dasatinib; first compound 0.0002 µM),relative viability (Bortezomib + Dasatinib; first compound 0.000632 µM),relative viability (Bortezomib + Dasatinib; first compound 0.002 µM),relative viability (Bortezomib + Dasatinib; first compound 0.006325 µM),relative viability (Bortezomib + Dasatinib; first compound 0.02 µM)
NCI-H727,0.86,0.882,1.32,1.02,0.523,0.841,0.586,0.867,0.463,0.255,0.747,0.552,0.827,0.573,0.573,0.369,0.38,0.415,0.184,0.147
NCI-H838,0.726,0.729,0.394,0.146,0.117,0.759,0.802,0.705,0.168,0.0832,0.873,0.933,0.776,0.889,0.656,0.271,0.261,0.32,0.209,0.16
NCI-H1355,0.639,0.599,0.622,0.273,0.104,1.16,1.17,1.16,0.885,0.168,0.698,0.709,0.613,0.735,0.647,0.69,0.753,0.813,0.18,0.156
NCI-H1437,0.631,0.904,0.819,0.394,0.201,0.621,0.554,0.656,0.247,0.0909,1.12,1.16,1.03,1.08,0.895,0.335,0.374,0.486,0.129,0.11
NCI-H1651,0.349,0.529,0.464,0.497,0.145,0.946,0.892,0.865,0.876,0.448,0.488,0.4,0.421,0.431,0.439,0.387,0.442,0.153,0.105,0.0988
NCI-H1666,1.05,0.992,0.926,1.12,0.802,0.892,0.925,0.872,0.55,0.215,0.959,0.823,0.789,0.815,0.581,0.759,0.845,0.837,0.329,0.326
NCI-H1734,0.745,0.757,0.694,0.22,0.187,0.814,0.999,0.731,0.234,0.13,0.513,0.499,0.456,0.472,0.238,0.469,0.45,0.516,0.112,0.109
NCI-H1755,0.682,0.773,0.651,0.359,0.209,0.913,1.01,0.956,0.63,0.195,0.387,0.468,0.381,0.457,0.423,0.449,0.326,0.418,0.176,0.196
NCI-H1915,0.493,0.584,0.467,0.376,0.116,1.01,1.04,1.01,0.555,0.54,0.697,0.573,0.648,0.752,0.562,0.234,0.329,0.315,0.128,0.0542
NCI-H1975,0.663,0.733,0.536,0.187,0.128,0.403,0.408,0.31,0.159,0.109,0.744,0.654,–,0.728,0.756,0.385,0.266,0.106,0.0685,0.084
NCI-H1993,0.737,0.734,1.03,0.238,0.275,1.08,–,1.2,0.781,0.391,0.769,0.789,0.898,0.818,0.536,0.542,0.578,0.577,0.408,0.456
NCI-H2085,0.826,0.95,0.822,0.322,0.366,1.06,1.05,1.07,0.651,0.333,0.932,0.991,0.952,0.621,0.299,0.31,0.253,0.207,0.209,0.241
NCI-H2087,0.697,0.954,0.72,0.324,0.141,0.792,1.03,0.818,0.648,0.11,1.19,1.37,1.15,1.21,0.9,0.684,0.819,0.458,0.0422,0.037
NCI-H2126,0.816,0.82,0.834,0.674,0.202,1.07,1.14,1.19,1.09,1.02,1.08,0.951,1.05,1.06,0.974,0.58,0.607,0.662,0.254,0.2
NCI-H2347,0.593,0.686,0.583,0.44,0.262,0.829,1.21,1.04,1.32,0.461,0.687,0.836,0.777,0.695,0.869,0.685,0.353,0.332,0.321,0.219
NCI-H2405,1.05,1.1,1.02,0.406,0.142,0.963,0.819,1.02,0.865,0.958,0.726,0.857,–,0.924,0.8,0.18,0.188,0.288,0.16,0.144
